# Test results as given in US20240299588A1, “NERVE LABEL” (UCL Business Ltd, priority 2021, published 2024).
# Columns and labels:
# [1] = system: sciatic nerve; assay: In vivo imaging of sciatic nerve in rat following oral administration of 5-ALA; design: species or system rats
# Protocol: (§1) Images were obtained 24 hours after 5-ALA administration. (A) Bright field, (B) fluorescence image with false colour scale (highest intensity red/white) in rats administered with 5-ALA. Images were obtained with a CCD camera following excitation at 405 nm using a light-emitting diode (LED) and red porphyrin fluorescence was recorded at 620-650 nm.
# (§2) 5-ALA was obtained from Sigma as an HCl salt in powder form, was stored inside a freezer. Before use, it was thawed, dissolved in a buffered aqueous solution at about pH 5, and then administered intravenously or orally.
# A high fluorescence signal-to-background ratio (SBR) on the peripheral nerves was observed compared to adjacent tissues. […] The results were reproducible and were tested in 5 rats.
# [2] = system: brachial plexus; assay: In vivo peripheral nerve labelling in rats, intravenous 5-ALA, fluorescence imaging of brachial plexus; design: species or system Wistar rats
# Protocol: (§3) Images were obtained 24 hours after 5-ALA administration using a CCD camera following excitation at 405 nm and porphyrin fluorescence was recorded at 620-650 nm. Scale bar 5 mm.
# False colour scale, red/white corresponding to high intensity. BP: brachial plexus, ALN: axillary lymph node. (A): Fluorescence image of the brachial plexus 4 hours post-injection, and (B) the corresponding bright field image (C): Fluorescence image of the brachial nerve 24 hours post-injection. (D): Brachial plexus image in control rat without 5-ALA injection.
# 5-ALA was obtained from Sigma as an HCl salt in powder form, was stored inside a freezer. […]
# (§4) To investigate the potential of a porphyrin prodrug for in vivo peripheral nerve labelling, Wistar rats (n>10 were injected intravenously with the porphyrin prodrug (5-aminolevulinic acid, 5-ALA), as shown in FIG. 1. At set time-points after the injection, the rats were sacrificed and the sciatic nerves and brachial plexus (near the armpit) and surrounding tissues (e.g. muscle, fat tissues) were exposed. The fluorescence image was recorded using a CCD camera.
# Wistar rats were administered with 5-ALA intravenously at various concentrations including 100 mg/kg and 200 mg/kg. […] 5-ALA-induced fluorescence was also detected 4 hours after administration of 5-ALA.
# [3] = system: facial nerves; assay: In vivo visualisation of facial nerves following intravenous administration of 5-ALA; design: species or system Wistar rats; details: including 24 hours after administration
# Protocol: Images were obtained 24 hours after 5-ALA administration. (A) fluorescence image (highest intensity white colour) in rats administered with 5-ALA, (B) Bright field, in rats administered with 5-ALA, (C) Bright field, in rats administered with 5-control, and (D) fluorescence image (highest intensity white colour) in rats administered with control. Images were obtained with a CCD camera following excitation at 405 nm using a light-emitting diode (LED) and red porphyrin fluorescence was recorded at 620-650 nm.
# as §2
# Wistar rats were administered with 5-ALA intravenously at different concentrations including 0 mg/kg (control), 100 mg/kg and 200 mg/kg. In vivo visualisation of facial nerves which are part of the cranial nerves were performed at various times including 24 hours after administration of 5-ALA. […] No fluorescence was detected in control rats (FIG. 8D).
# [4] = system: sciatic nerves; assay: In vivo peripheral nerve labelling in rats, intravenous 5-ALA, fluorescence imaging of sciatic nerve; design: species or system Wistar rats
# Protocol: as §1, with “A: bright” for “(A) Bright”, “B:” for “(B)”, “injected” for “administered”, “porphyrin prodrug, C: control rat without any drug injection.” for “5-ALA.”, “nm. Scale bar 5 mm.” for “nm.”
# as §2, §4
# [5] = system: sciatic nerves; assay: In vivo visualisation of sciatic nerves at various times following intravenous administration of 5-ALA; design: species or system Wistar rats
# Protocol: as §3, §2
# Wistar rats were administered with 5-ALA intravenously at various concentrations including 100 mg/kg and 200 mg/kg. In vivo visualisation of peripheral nerves such as sciatic nerves and brachial plexus were obtained at various post injection times ranging from 1 hours up to few weeks after administration of 5-ALA. […] 5-ALA-induced fluorescence was also detected 4 hours after administration of 5-ALA.
# [6] = sciatic nerve, intravenous injection, excitation 405 nm, fluorescence 620-650 nm, without optimisation of dose or time
structure (smiles),measurement,setting,value
"NCC(=O)CCC(=O)O [5-ALA, 5-aminolevulinic acid]",red porphyrin fluorescence in rat nerves,[1]; 24 hours after administration,highly selective and localised
same,fluorescence signal ratio versus adjacent tissues,[1]; tested in 5 rats,comparable to the intravenous injection route
same,time course of nerve fluorescence in other peripheral nerves,"[2]; brachial plexus, compared with sciatic nerve time course",same results
same,brachial plexus labelling,[2]; intravenous injection,brachial plexus labelling
same,5-ALA induced fluorescence (PpIX) in branches of facial nerves,[3],bright and localised
same,red porphyrin fluorescence in rat nerves,[4]; intravenous injection,highly selective and localised
same,diameter of small nerve branches that can be resolved,"[4]; intravenous injection, fluorescence imaging",~0.1 mm
same,nerve to fat tissue ratio (fluorescence signal-to-background ratio),[4]; [6],> 10
same,nerve to muscle intensity ratio (fluorescence signal-to-background ratio),[4]; [6],> 15
same,time at which porphyrin levels reach a peak in surrounding tissue,"[4]; surrounding tissue (muscle, fat), then rapid decline to basal levels",~4 h
same,fluorescence intensity in nerve,[5]; 2 weeks after administration,returned close to background levels
same,fluorescence intensity in nerve,[5]; 4 weeks after administration,returned close to background levels
same,5-ALA-induced fluorescence (PpIX) in sciatic nerve,[5]; 4 hours after intravenous administration,detected
same,5-ALA-induced fluorescence (PpIX) in sciatic nerve,[5]; 24 hours after intravenous administration,bright and localised
same,visualisation of sciatic nerves,[5]; 3 days after systemic administration,clearly visualised
same,visualisation of sciatic nerves,[5]; 5 days after systemic administration,clearly visualised
same,shortest time after contacting or administration at which peripheral nerves can be visualised,[5]; peripheral nerves,≥ 1 h
same,time that peripheral nerves retain high levels of fluorescence compared to background after administration,[5]; peripheral nerves,up to 7 days
same,time after administration at which the highest SBR may be achieved,"[5]; peripheral nerves, PpIX cleared from adjacent tissues",about 24 hours
